Experiments:
Format in all cases: cell-based
Acinetobacter baumannii = assay: VITEK2 Compact AST (AST-N335 cards), gold standard culture-based AST
Method: Step 1. Drug susceptibility verification: The Acinetobacter baumannii isolates were tested for drug susceptibility using bioMérieux Vitek2 Compact System and AST-N335 cards, and the results were used as the gold standard (culture-based AST).

Candida tropicalis = assay: Broth microdilution (M27-A3, M27-S4), gold standard culture-based AST
Klebsiella pneumoniae = assay: VITEK2 Compact AST (AST-GN13/GN334 cards), gold standard culture-based AST; details: for Resistance profiles by VITEK2: R: number of resistant among 24 blinds; for Resistance profiles by VITEK2: S: number of susceptible among 24 blinds
Excerpt: Step 1. Sample collection and drug susceptibility verification: 240 clinical Klebsiella pneumoniae isolates were collected from 23 hospitals across china in a period between January 2018 and March 2019.

Candida albicans = assay: Broth microdilution (M27-A3, M27-S4), gold standard culture-based AST; details: for Results by broth microdilution method: R: number of resistant among 12 blinds; for Results by broth microdilution method: S: number of susceptible among 12 blinds
Method: Step 1. Sample collection and drug susceptibility verification: 120 clinical Candida albicans isolates were collected from 31 hospitals across china in a period between September 2015 and January 2019. All isolates were tested for drug susceptibility using broth microdilution method following the M27-A3 and M27-S4 guidelines of NCCLS, and the results were used as the gold standard (culture-based AST).

Streptococcus pneumoniae = assay: VITEK2 Compact AST (AST-GP68 cards) with penicillin disc diffusion, gold standard culture-based AST
Method: (§1) Step 1. Drug susceptibility verification: The Streptococcus pneumoniae isolates were tested for drug susceptibility using bioMérieux Vitek2 Compact System and AST-GP68 cards, and specifically, the susceptibility of penicillin was double checked by disc diffusion method (OXOID, CT0043B), and the combined results were used as the gold standard (culture-based AST).
as §1, with “Sample collection and drug” for “Drug”, “48 clinical” for “The”, “pneumoniae isolates were collected from 18 hospitals across china in a period between May 2017 and October 2019. All” for “pneumoniae”, “card,” for “cards,”

Enterococcus faecalis = assay: VITEK2 Compact AST (AST-P639 cards), gold standard culture-based AST
[1] = Resistance profile classification A
[2] = Resistance profile classification B
[3] = Resistance profile classification C
[4] = Resistance profile classification D
[5] = Resistance profile classification E
[6] = Resistance profile classification F
[7] = Resistance profile classification G
[8] = Resistance profile classification H
[9] = Resistance profile classification I
[10] = Resistance profile classification J
[11] = Resistance profile classification K
[12] = Resistance profile classification L
[13] = Resistance profile classification M
[14] = Resistance profile classification S

CCN1CCN(C(=O)N[C@@H](C(=O)N[C@@H]2C(=O)N3[C@@H]2SC(C)(C)[C@@H]3C(=O)O)c2ccccc2)C(=O)C1=O [pipercillin, piperacillin]
Suscepibility of Acinetobacter baumannii to 12 antibacterial drugs (Acinetobacter baumannii; [1]): R | Suscepibility of Acinetobacter baumannii to 12 antibacterial drugs (Acinetobacter baumannii; [2]): R | Suscepibility of Acinetobacter baumannii to 12 antibacterial drugs (Acinetobacter baumannii; [3]): R | Suscepibility of Acinetobacter baumannii to 12 antibacterial drugs (Acinetobacter baumannii; [4]): R | Suscepibility of Acinetobacter baumannii to 12 antibacterial drugs (Acinetobacter baumannii; [5]): R | Suscepibility of Acinetobacter baumannii to 12 antibacterial drugs (Acinetobacter baumannii; [6]): R | Suscepibility of Acinetobacter baumannii to 12 antibacterial drugs (Acinetobacter baumannii; [7]): R | Suscepibility of Acinetobacter baumannii to 12 antibacterial drugs (Acinetobacter baumannii; [8]): R | Suscepibility of Acinetobacter baumannii to 12 antibacterial drugs (Acinetobacter baumannii; [9]): R | Suscepibility of Acinetobacter baumannii to 12 antibacterial drugs (Acinetobacter baumannii; [10]): R | Suscepibility of Acinetobacter baumannii to 12 antibacterial drugs (Acinetobacter baumannii; [11]): R | Suscepibility of Acinetobacter baumannii to 12 antibacterial drugs (Acinetobacter baumannii; [12]): R | Suscepibility of Acinetobacter baumannii to 12 antibacterial drugs (Acinetobacter baumannii; [13]): R | Suscepibility of Acinetobacter baumannii to 12 antibacterial drugs (Acinetobacter baumannii; Resistance profile classification N): R | Suscepibility of Acinetobacter baumannii to 12 antibacterial drugs (Acinetobacter baumannii; Resistance profile classification O): S | Suscepibility of Acinetobacter baumannii to 12 antibacterial drugs (Acinetobacter baumannii; Resistance profile classification P): S | Suscepibility of Acinetobacter baumannii to 12 antibacterial drugs (Acinetobacter baumannii; Resistance profile classification Q): S | Suscepibility of Acinetobacter baumannii to 12 antibacterial drugs (Acinetobacter baumannii; Resistance profile classification R): S | Suscepibility of Acinetobacter baumannii to 12 antibacterial drugs (Acinetobacter baumannii; [14]): S

CC[C@H](C)C[C@H](C)CCCCCCCCC(=O)N[C@H]1C[C@@H](O)[C@@H](NCCN)NC(=O)[C@@H]2[C@@H](O)CCN2C(=O)[C@H]([C@H](O)CCN)NC(=O)[C@H]([C@H](O)[C@@H](O)c2ccc(O)cc2)NC(=O)[C@@H]2C[C@@H](O)CN2C(=O)[C@H]([C@@H](C)O)NC1=O [CAS]
Resistance profiles by broth microdilution (the gold standard) (Candida tropicalis; blind-1): S | Resistance profiles by broth microdilution (the gold standard) (Candida tropicalis; blind-2): S | Resistance profiles by broth microdilution (the gold standard) (Candida tropicalis; blind-3): S | Resistance profiles by broth microdilution (the gold standard) (Candida tropicalis; blind-4): S | Resistance profiles by broth microdilution (the gold standard) (Candida tropicalis; blind-5): S | Resistance profiles by broth microdilution (the gold standard) (Candida tropicalis; blind-6): S

C[C@@H]1[C@H](O)[C@@H](C)/C=C/C=C/C=C/C=C/C=C/C=C/C=C/[C@H](O[C@@H]2O[C@H](C)[C@@H](O)[C@H](N)[C@@H]2O)C[C@@H]2O[C@](O)(C[C@@H](O)C[C@@H](O)[C@H](O)CC[C@@H](O)C[C@@H](O)CC(=O)O[C@H]1C)C[C@H](O)[C@H]2C(=O)O [AMB]
Resistance profiles by broth microdilution (the gold standard) (Candida tropicalis; blind-1): S | Resistance profiles by broth microdilution (the gold standard) (Candida tropicalis; blind-2): S | Resistance profiles by broth microdilution (the gold standard) (Candida tropicalis; blind-3): S | Resistance profiles by broth microdilution (the gold standard) (Candida tropicalis; blind-4): S | Resistance profiles by broth microdilution (the gold standard) (Candida tropicalis; blind-5): S | Resistance profiles by broth microdilution (the gold standard) (Candida tropicalis; blind-6): S

Nc1nc(=O)[nH]cc1F [5-FC]
Resistance profiles by broth microdilution (the gold standard) (Candida tropicalis; blind-1): S | Resistance profiles by broth microdilution (the gold standard) (Candida tropicalis; blind-2): S | Resistance profiles by broth microdilution (the gold standard) (Candida tropicalis; blind-3): S | Resistance profiles by broth microdilution (the gold standard) (Candida tropicalis; blind-4): S | Resistance profiles by broth microdilution (the gold standard) (Candida tropicalis; blind-5): S | Resistance profiles by broth microdilution (the gold standard) (Candida tropicalis; blind-6): S

Cefoperazone-sulbactam
Resistance profiles by VITEK2: R (Klebsiella pneumoniae): 13 | Resistance profiles by VITEK2: S (Klebsiella pneumoniae): 11

C[C@@H](c1ncncc1F)[C@](O)(Cn1cncn1)c1ccc(F)cc1F [Voriconazole]
Results by broth microdilution method: R (Candida albicans): 2 | Results by broth microdilution method: S (Candida albicans): 10

Ampicillin-sulbactam
Resistance profiles by VITEK2: R (Klebsiella pneumoniae): 15 | Resistance profiles by VITEK2: S (Klebsiella pneumoniae): 9

C[C@@H](c1ncncc1F)[C@](O)(Cn1cncn1)c1ccc(F)cc1F [VOR]
Resistance profiles by broth microdilution (the gold standard) (Candida tropicalis; blind-1): R | Resistance profiles by broth microdilution (the gold standard) (Candida tropicalis; blind-2): S | Resistance profiles by broth microdilution (the gold standard) (Candida tropicalis; blind-3): R | Resistance profiles by broth microdilution (the gold standard) (Candida tropicalis; blind-4): R | Resistance profiles by broth microdilution (the gold standard) (Candida tropicalis; blind-5): S | Resistance profiles by broth microdilution (the gold standard) (Candida tropicalis; blind-6): S

CN(C)[C@@H]1C(O)=C(C(N)=O)C(=O)[C@@]2(O)C(O)=C3C(=O)c4c(O)cccc4[C@@](C)(O)[C@H]3C[C@@H]12 [tetracycline]
Blind 1 by AST (Streptococcus pneumoniae; Blind 1): R | Susceptibility of Streptococcus pneumoniae to 14 antibacterial drugs (Streptococcus pneumoniae; [1]): R | Susceptibility of Streptococcus pneumoniae to 14 antibacterial drugs (Streptococcus pneumoniae; [2]): R | Susceptibility of Streptococcus pneumoniae to 14 antibacterial drugs (Streptococcus pneumoniae; [3]): S | Susceptibility of Streptococcus pneumoniae to 14 antibacterial drugs (Streptococcus pneumoniae; [4]): S | Susceptibility of Streptococcus pneumoniae to 14 antibacterial drugs (Streptococcus pneumoniae; [5]): S | Susceptibility of Streptococcus pneumoniae to 14 antibacterial drugs (Streptococcus pneumoniae; [6]): S | Susceptibility of Streptococcus pneumoniae to 14 antibacterial drugs (Streptococcus pneumoniae; [7]): S | Susceptibility of Streptococcus pneumoniae to 14 antibacterial drugs (Streptococcus pneumoniae; [8]): S | Susceptibility of Streptococcus pneumoniae to 14 antibacterial drugs (Streptococcus pneumoniae; [9]): S | Susceptibility of Streptococcus pneumoniae to 14 antibacterial drugs (Streptococcus pneumoniae; [10]): R | Susceptibility of Streptococcus pneumoniae to 14 antibacterial drugs (Streptococcus pneumoniae; [14]): S | blind 2 by AST (Streptococcus pneumoniae; blind 2): R | Susceptibility of Emterococcus faecalis to 11 antibacterial drugs (Enterococcus faecalis; [1]): R | Susceptibility of Emterococcus faecalis to 11 antibacterial drugs (Enterococcus faecalis; [2]): S | Susceptibility of Emterococcus faecalis to 11 antibacterial drugs (Enterococcus faecalis; [3]): S | Susceptibility of Emterococcus faecalis to 11 antibacterial drugs (Enterococcus faecalis; [4]): S | Susceptibility of Emterococcus faecalis to 11 antibacterial drugs (Enterococcus faecalis; Resistance profile classification F (first line so labelled, r12)): S | Susceptibility of Emterococcus faecalis to 11 antibacterial drugs (Enterococcus faecalis; Resistance profile classification F (second line so labelled, r13)): R | Susceptibility of Emterococcus faecalis to 11 antibacterial drugs (Enterococcus faecalis; [7]): R | Susceptibility of Emterococcus faecalis to 11 antibacterial drugs (Enterococcus faecalis; [8]): R | Susceptibility of Emterococcus faecalis to 11 antibacterial drugs (Enterococcus faecalis; [9]): S | Susceptibility of Emterococcus faecalis to 11 antibacterial drugs (Enterococcus faecalis; [10]): R | Susceptibility of Emterococcus faecalis to 11 antibacterial drugs (Enterococcus faecalis; [11]): R | Susceptibility of Emterococcus faecalis to 11 antibacterial drugs (Enterococcus faecalis; [12]): S | Susceptibility of Emterococcus faecalis to 11 antibacterial drugs (Enterococcus faecalis; [13]): R | Susceptibility of Emterococcus faecalis to 11 antibacterial drugs (Enterococcus faecalis; [14]): S

CC[C@H](C)C[C@H](C)CCCCCCCCC(=O)N[C@H]1C[C@@H](O)[C@@H](NCCN)NC(=O)[C@@H]2[C@@H](O)CCN2C(=O)[C@H]([C@H](O)CCN)NC(=O)[C@H]([C@H](O)[C@@H](O)c2ccc(O)cc2)NC(=O)[C@@H]2C[C@@H](O)CN2C(=O)[C@H]([C@@H](C)O)NC1=O [Caspofungin]
Results by broth microdilution method: R (Candida albicans): 0 | Results by broth microdilution method: S (Candida albicans): 12

From patent publication US20220380829A1, “Method of Diagonosizing Pathogens and their Antimicrobial Susceptibility” (HANGZHOU DIAN MEDICAL LABORATORY CO., LTD., priority 2019, published 2022)
